We go through 19 molecules from ChEMBL document CHEMBL5512624, “OSMAC Strategy: A promising way to explore microbial cyclic peptides” (Eur J Med Chem, 2024).

In brackets after ≈: the same amount, converted by molar mass. Numbered stars: 1 amine (or outer) side, 2 acyl side, 3 side chain; on linkers, the order of the positions; unused ones are H or OH. Square brackets hold non-standard residues; d marks the D form. Peptide text beside a SMILES is read from it. X5 = C=C(N[*:1])c1nc(-c2nc(C(=O)[*:2])ccc2-c2nccs2)co1; X1 = CCC(C)CCCCCCCCCCC[C@H](N[*:1])C(=O)[*:2]; X7 = CC(C)CCCCCCCCCCC[C@H](N[*:1])C(=O)[*:2]; X2 = CCC(C)CCCCCCCCC[C@H](N[*:1])C(=O)[*:2]; X6 = CC(C)CCCCCCCCCC[C@H](N[*:1])C(=O)[*:2]; X8 = CCCCCCCCCCCCCC[C@H](N[*:1])C(=O)[*:2]; Gly(Dodecyl) = CCCCCCCCCCCC[C@H](N)C(=O)O; X3 = C/C=C(\N[*:1])c1nc(C(=O)[*:2])co1; X4 = C=C(N[*:1])c1nc(C(=O)[*:2])c(C)o1; NMeY = CN[C@@H](Cc1ccc(O)cc1)C(=O)O; Val(3-OH) = CC(C)(O)[C@H](N)C(=O)O; Dha = C=C(N)C(=O)O

Experiment [1] in a line: Inhibition rat liver microsome ACAT. Format: microsomes.
In another experiment the test system is SW480. The experiment in a line: Cytotoxicity against human SW480 cells assessed as reduction in cell viability incubated for 24 hrs by MTT assay. Format: functional, cell-based. The settings on record: SW480, 24 h.
For another experiment, the system named is HL-60. The experiment is described as follows: Cytotoxicity against human HL-60 cells assessed as reduction in cell viability incubated for 24 hrs by MTT assay. The settings on record: HL-60, 24 h. Format: functional, cell-based.
A further experiment relates to MCF7. The experiment in a line: Cytotoxicity against human MCF7 cells assessed as reduction in cell viability incubated for 24 hrs by MTT assay. The settings on record: MCF7, 24 h. The class given is functional, cell-based.
The next experiment deals with Aspergillus fumigatus. The experiment in a line: Antifungal activity against Aspergillus fumigatus ATCC 46645 assessed as fungal growth inhibition incubated for 24 hrs by CLSI protocol based broth microdilution method. The class given is functional, organism-based. The settings on record: ATCC 46645, 24 h.
A further experiment has as its system Influenza A virus. The experiment is described as follows: Antiviral activity against Influenza A virus H9N2 infected in MDCK cells assessed as inhibition of viral replication. The class given is functional, organism-based.
Another experiment has as its system Aspergillus niger. The experiment is described as follows: Antifungal activity against Aspergillus niger assessed as fungal growth inhibition. Format: functional.
The next experiment concerns Human alphaherpesvirus 1. The experiment is described as follows: Antiviral activity against HSV-1 infected in African green monkey Vero cells by plaque reduction assay. The class given is functional, organism-based. The settings on record: Human alphaherpesvirus 1, Vero.
Another experiment deals with Trypanosoma cruzi. The experiment in a line: Antitrypanosomal activity against Trypanosoma cruzi amastigote assessed as parasite growth inhibition incubated for 24 hrs by light microscopic analysis. The class given is functional, organism-based.
The subject of a further experiment is Plasmodium falciparum. The experiment in a line: Antiplasmodial activity against Plasmodium falciparum 3D7 assessed as reduction in parasite growth incubated for 72 hrs by SYBR Green dye based fluorescence assay. Format: functional, organism-based. The settings on record: 3D7, 72 h.

In general, IC50 refers to the concentration that inhibits the measured activity by half. Broadly, the MIC is the lowest concentration that inhibits growth of the organism.

As to `CC(C)[C@H]1OC(=O)[C@H](Cc2ccccc2)N(C)C(=O)[C@@H](C(C)C)OC(=O)[C@H](Cc2ccccc2)N(C)C(=O)[C@@H](C(C)C)OC(=O)[C@H](Cc2ccccc2)N(C)C1=O`, the IC50 in [1] was 3 µM. Turning to `CC[C@H](C)[C@@H]1NC(=O)[C@@H]2[C@H](C)CCN2C(=O)[C@H](C[C@H](O)CCl)OC(=O)CCNC(=O)[C@@H](C)N(C)C(=O)[C@H]([C@@H](C)CC)N(C)C1=O`, the values for the IC50 in the experiment with SW480, in the experiment on HL-60 and in the experiment with MCF7 were 0.107 µM, 0.149 µM and 0.079 µM, respectively. As for `CCCCCCC/C=C/C=C/C=C/[C@H](C[C@H](O)C[C@H]1NC(=O)[C@H](C[C@H](O)CO)NC(=O)[C@@H](CC(N)=O)NC(=O)[C@H](C[C@H](O)CO)NC(=O)[C@H](C)CNC(=O)[C@H]1O)OC`, the IC50 with Aspergillus fumigatus came out at 4 µM. For `C=C(NC(=O)c1nc(C(=C)NC(=O)[C@@H](NC(=O)C(=C)NC(=O)c2coc(/C(=C/C)NC(=O)[C@@H](NC(C)=O)[C@@H](C)O)n2)C(C)C)oc1C)C(=O)NC(=C)c1nc(-c2nc(C(N)=O)ccc2-c2nccs2)co1`, the IC50 in the experiment on Influenza A virus was 28.7 µM.

Consider `CCCCCCC/C=C/C=C/C=C/[C@H](C[C@H](O)C[C@@H]1CC(=O)NC[C@@H](C)C(=O)N[C@@H](C[C@H](O)CO)C(=O)N[C@H](CC(N)=O)C(=O)N[C@@H](C[C@H](O)CO)C(=O)N1)OC`, for which, in the experiment on Aspergillus fumigatus, the IC50 amounted to 4 µM. In the case of `CCCCCCC/C=C/C=C/C=C/[C@H](C[C@H](O)C[C@H]1NC(=O)[C@H](C[C@H](O)CO)NC(=O)[C@@H](CC(N)=O)NC(=O)[C@H](CC(N)=O)NC(=O)[C@H](C)CNC(=O)[C@H]1O)OC`, the concentration for half-maximal inhibition (IC50) with Aspergillus fumigatus came to 4 µM. `CCCCCCC/C=C/C=C/C=C/[C@H](C[C@H](O)C[C@@H]1CC(=O)NC[C@@H](C)C(=O)N[C@@H](CC(N)=O)C(=O)N[C@H](CC(N)=O)C(=O)N[C@@H](C[C@H](O)CO)C(=O)N1)OC`: the IC50 in the experiment with Aspergillus fumigatus turned out to be 4 µM. In the case of `CCCCCCC/C=C/C=C/C=C/[C@H](C[C@H](O)C[C@H]1NC(=O)[C@H](C[C@H](O)C(C)O)NC(=O)[C@@H](CC(N)=O)NC(=O)[C@H](CC(N)=O)NC(=O)[C@H](C)CNC(=O)[C@H]1O)OC` (some centres not stated), in the experiment on Aspergillus fumigatus, the IC50 is 4 µM. As for `C=C(NC(=O)C(=C)NC(=O)c1ccc(-c2nccs2)c(-c2coc(C(=C)NC(=O)C(=C)NC(=O)c3nc(C(=C)NC(=O)[C@@H](NC(=O)C(=C)NC(=O)c4coc(/C(=C/C)NC(=O)[C@@H](NC(C)=O)[C@@H](C)O)n4)C(C)C)oc3C)n2)n1)C(N)=O` (Ac-T[X3][Dha]V[X4][Dha][X5][Dha][Dha]-NH2), the IC50 with Influenza A virus was 18.3 µM. Still for that read-out and setting: in the case of `C=C(NC(=O)c1ccc(-c2nccs2)c(-c2coc(C(=C)NC(=O)C(=C)NC(=O)c3nc(C(=C)NC(=O)[C@@H](NC(=O)C(=C)NC(=O)c4coc(/C(=C/C)NC(=O)[C@@H](NC(C)=O)[C@@H](C)O)n4)C(C)(C)O)oc3C)n2)n1)C(N)=O` (Ac-T[X3][Dha][Val(3-OH)][X4][Dha][X5][Dha]-NH2) it was 7.3 µM; in that of `C=C(NC(=O)C(=C)NC(=O)c1ccc(-c2nccs2)c(-c2coc(C(=C)NC(=O)C(=C)NC(=O)c3nc(C(=C)NC(=O)[C@@H](NC(=O)C(=C)NC(=O)c4coc(/C(=C/C)NC(=O)[C@@H](NC(C)=O)[C@@H](C)O)n4)C(C)(C)O)oc3C)n2)n1)C(N)=O` (Ac-T[X3][Dha][Val(3-OH)][X4][Dha][X5][Dha][Dha]-NH2), 15.3 µM. Turning to `CCCCCCCCCCCC[C@@H]1NC(=O)[C@@H]2CCCN2C(=O)[C@H](CCC(N)=O)NC(=O)[C@H](CC(N)=O)NC(=O)[C@H](CO)NC(=O)[C@H](CC(N)=O)NC(=O)[C@H](Cc2ccc(O)cc2)NC(=O)[C@H](CC(N)=O)NC1=O` (cyclo(NQP[Gly(Dodecyl)]NYNS)), the MIC in the experiment on Aspergillus niger came out at 3.12 µg/mL (≈ 2.99 µM). The same measure, in the same setting: the result for `CCC(C)CCCCCCCCCCC[C@@H]1NC(=O)[C@@H]2CCCN2C(=O)[C@H](CCC(N)=O)NC(=O)[C@H](CC(N)=O)NC(=O)[C@H](CO)NC(=O)[C@H](CC(N)=O)NC(=O)[C@H](Cc2ccc(O)cc2)NC(=O)[C@H](CC(N)=O)NC1=O` (some centres not stated) (cyclo(NQP[X1]NYNS)) reads 3.12 µg/mL (≈ 2.87 µM); that for `CCC(C)CCCCCCCCC[C@@H]1NC(=O)[C@@H]2CCCN2C(=O)[C@H](CCC(N)=O)NC(=O)[C@H](CC(N)=O)NC(=O)[C@H](CO)NC(=O)[C@H](CC(N)=O)NC(=O)[C@H](Cc2ccc(O)cc2)NC(=O)[C@H](CC(N)=O)NC1=O` (some centres not stated) (cyclo(NQP[X2]NYNS)), 3.12 µg/mL (≈ 2.95 µM). For the molecule `CC(C)CCCCCCCCCC[C@@H]1NC(=O)[C@@H]2CCCN2C(=O)[C@H](CCC(N)=O)NC(=O)[C@H](CC(N)=O)NC(=O)[C@H](CO)NC(=O)[C@H](CC(N)=O)NC(=O)[C@H](Cc2ccc(O)cc2)NC(=O)[C@H](CC(N)=O)NC1=O` (cyclo(NQP[X6]NYNS)), the MIC with Aspergillus niger came out at 3.12 µg/mL (≈ 2.95 µM). With `CC(C)CCCCCCCCCCC[C@@H]1NC(=O)[C@@H]2CCCN2C(=O)[C@H](CCC(N)=O)NC(=O)[C@H](CC(N)=O)NC(=O)[C@H](CO)NC(=O)[C@H](CC(N)=O)NC(=O)[C@H](Cc2ccc(O)cc2)NC(=O)[C@H](CC(N)=O)NC1=O` (cyclo(NQP[X7]NYNS)), the MIC in the experiment on Aspergillus niger came out at 3.12 µg/mL (≈ 2.91 µM). The same measure, in the same setting: in the case of `CCCCCCCCCCCCCC[C@@H]1NC(=O)[C@@H]2CCCN2C(=O)[C@H](CCC(N)=O)NC(=O)[C@H](CC(N)=O)NC(=O)[C@H](CO)NC(=O)[C@H](CC(N)=O)NC(=O)[C@H](Cc2ccc(O)cc2)NC(=O)[C@H](CC(N)=O)NC1=O` (cyclo(NQP[X8]NYNS)) it was 3.12 µg/mL (≈ 2.91 µM). Regarding `COc1ccc(C[C@@H]2NC(=O)[C@@H]3CCCN3C(=O)[C@H](C(C)C)NC(=O)[C@H](Cc3ccc(O)cc3)N(C)C(=O)[C@H](Cc3ccc(OC)cc3)NC2=O)cc1` (cyclo([NMeY]VPY(Me)Y(Me))), it took 9.5 µM to reach half-maximal inhibition in the experiment on Human alphaherpesvirus 1 (IC50).

With `COc1ccc2c3c([nH]c2c1)[C@H](C=C(C)C)N1C(=O)[C@@H]2CCCN2C(=O)[C@@H]1C3` [FUMITREMORGIN], the IC50 with Trypanosoma cruzi stood at 9.6 µM; with Plasmodium falciparum, 2.3 µM.
